± gives the expanded uncertainty stated by the source.
Experiment: xn = mol fraction of the nth substance listed
Conditions: 101 kPa, Liquid, Vibrating tube method

CC(O)CN (stereo not drawn) [1-amino-2-propanol] + O
mass density [kg/m3]
Conditions	318.15 K	323.15 K	328.15 K	333.15 K	338.15 K	343.15 K	348.15 K	353.15 K
x2 = 0.0438	–	938.15 ± 0.46	934 ± 0.46	929.82 ± 0.46	925.59 ± 0.45	921.33 ± 0.45	917.02 ± 0.45	912.66 ± 0.45
x2 = 0.0801	–	939.79 ± 0.44	935.65 ± 0.44	931.47 ± 0.44	927.26 ± 0.44	923 ± 0.44	918.7 ± 0.44	914.34 ± 0.43
x2 = 0.1269	–	942.24 ± 0.42	938.11 ± 0.42	933.95 ± 0.42	929.74 ± 0.42	925.48 ± 0.42	921.19 ± 0.42	916.84 ± 0.41
x2 = 0.1584	–	943.75 ± 0.41	939.62 ± 0.41	935.46 ± 0.41	931.25 ± 0.4	927 ± 0.4	922.71 ± 0.4	918.36 ± 0.4
x2 = 0.2003	–	945.98 ± 0.39	941.87 ± 0.39	937.7 ± 0.39	933.51 ± 0.39	929.26 ± 0.39	924.97 ± 0.38	920.63 ± 0.38
x2 = 0.2999	–	951.92 ± 0.35	947.82 ± 0.34	943.67 ± 0.34	939.48 ± 0.34	935.23 ± 0.34	930.93 ± 0.34	926.59 ± 0.34
x2 = 0.3498	–	955.13 ± 0.32	951.03 ± 0.32	946.88 ± 0.32	942.69 ± 0.32	938.45 ± 0.32	934.15 ± 0.32	929.81 ± 0.32
x2 = 0.3999	–	958.3 ± 0.3	954.21 ± 0.3	950.06 ± 0.3	945.87 ± 0.3	941.62 ± 0.3	937.32 ± 0.3	932.97 ± 0.3
x2 = 0.4499	–	961.75 ± 0.28	957.65 ± 0.28	953.5 ± 0.28	949.31 ± 0.28	945.06 ± 0.28	940.76 ± 0.28	936.4 ± 0.27
x2 = 0.4968	–	965.17 ± 0.26	961.07 ± 0.26	956.92 ± 0.26	952.72 ± 0.26	948.47 ± 0.26	944.16 ± 0.26	939.8 ± 0.25
x2 = 0.5122	970.43 ± 0.25	966.38 ± 0.25	962.28 ± 0.25	958.13 ± 0.25	953.93 ± 0.25	949.68 ± 0.25	945.37 ± 0.25	941.01 ± 0.25
x2 = 0.5501	973.11 ± 0.23	969.05 ± 0.23	964.95 ± 0.23	960.8 ± 0.23	956.6 ± 0.23	952.34 ± 0.23	948.03 ± 0.23	943.66 ± 0.23
x2 = 0.6001	977.04 ± 0.21	972.99 ± 0.21	968.89 ± 0.21	964.74 ± 0.21	960.54 ± 0.21	956.29 ± 0.21	951.98 ± 0.21	947.61 ± 0.21
x2 = 0.6501	980.76 ± 0.19	976.72 ± 0.19	972.63 ± 0.19	968.49 ± 0.19	964.3 ± 0.19	960.06 ± 0.19	955.76 ± 0.19	951.4 ± 0.19
x2 = 0.7	984.34 ± 0.17	980.34 ± 0.17	976.28 ± 0.17	972.17 ± 0.17	968.01 ± 0.17	963.8 ± 0.17	959.53 ± 0.17	955.2 ± 0.17
x2 = 0.7501	987.6 ± 0.14	983.67 ± 0.14	979.68 ± 0.14	975.64 ± 0.14	971.55 ± 0.14	967.4 ± 0.14	963.19 ± 0.14	958.92 ± 0.15
x2 = 0.8	990.02 ± 0.12	986.23 ± 0.12	982.39 ± 0.12	978.48 ± 0.12	974.51 ± 0.12	970.48 ± 0.12	966.38 ± 0.12	962.22 ± 0.12
x2 = 0.84	991.29 ± 0.1	987.71 ± 0.1	984.06 ± 0.1	980.33 ± 0.1	976.53 ± 0.1	972.66 ± 0.1	968.72 ± 0.11	964.71 ± 0.1
x2 = 0.88	991.5 ± 0.08	988.22 ± 0.08	984.85 ± 0.08	981.39 ± 0.08	977.84 ± 0.08	974.2 ± 0.09	970.47 ± 0.09	966.66 ± 0.09
x2 = 0.92	990.94 ± 0.07	988.05 ± 0.07	985.04 ± 0.07	981.92 ± 0.07	978.68 ± 0.07	975.33 ± 0.07	971.88 ± 0.07	968.33 ± 0.08
x2 = 0.96	990.01 ± 0.05	987.53 ± 0.05	984.91 ± 0.05	982.14 ± 0.06	979.24 ± 0.06	976.22 ± 0.06	973.07 ± 0.06	969.81 ± 0.07

From the NIST ThermoML archive (doi:10.1016/j.tca.2005.10.007)
